Test results as given in ChEMBL document CHEMBL5149986, “Spliceostatins and Derivatives: Chemical Syntheses and Biological Properties of Potent Splicing Inhibitors” (J Nat Prod, 2021).
Square brackets hold non-standard residues; d marks the D form. Peptide text beside a SMILES is read from it. * marks the point of attachment. Dolaproine = CO[C@@H]([C@@H]1CCCN1)[C@@H](C)C(=O)O; Dil = CC[C@H](C)[C@H](NC)[C@@H](CC(=O)O)OC; X1 = C[C@@H](N*)[C@@H](O)c1ccccc1; NMeV = CN[C@H](C(=O)O)C(C)C

Tests used:
[1] = Cytotoxicity against HEK293T cells assessed as inhibition in cell growth; format: toxicity, cell-based, HEK-293T; conditions: human
[2] = tested on: MES-SA/Dx5; test: Cytotoxicity against human MES-SA/Dx5 cells assessed as inhibition in cell growth; format: functional, cell-based
[3] = tested on: MES-SA; test: Cytotoxicity against human MES-SA cells assessed as inhibition in cell growth; format: functional, cell-based
[4] = Inhibition of pre-mRNA splicing in human HeLa nuclear extract in presence of ATP; format: cell-free

| Structure (SMILES) | IC50 [1] [nM] | IC50 [2] [nM] | IC50 [3] [nM] | IC50 [4] [nM] |
| --- | --- | --- | --- | --- |
| CC(=O)O[C@@H](C)/C=C\C(=O)N[C@@H]1C[C@H](C)[C@H](C/C=C(C)/C=C/[C@H]2O[C@H](CCO)C[C@@]3(CO3)[C@@H]2O)O[C@@H]1C | 0.007 | 3.21 | 0.072 | – |
| CC(/C=C/[C@H]1O[C@H](C)C[C@@]2(CO2)[C@@H]1O)=C\C[C@@H]1O[C@H](C)[C@H](NC(=O)/C=C\[C@H](C)NC(=O)N2CCOCC2)C[C@@H]1C | 0.3 | 100 | 2.87 | – |
| CC(/C=C/[C@H]1O[C@H](C)C[C@@]2(CO2)[C@@H]1O)=C\C[C@@H]1O[C@H](C)[C@H](NC(=O)/C=C\[C@H](C)OC(=O)N(C)C)C[C@@H]1C | 0.003 | 0.14 | 0.04 | – |
| CO[C@]1(C)C[C@@]2(CO2)[C@H](O)[C@@H](/C=C/C(C)=C/C[C@@H]2O[C@H](C)[C@H](NC(=O)/C=C\[C@H](C)OC(C)=O)C[C@@H]2C)O1 | – | – | – | 10 |
| CC(/C=C/[C@H]1O[C@H](C)C[C@@]2(CO2)[C@@H]1O)=C\C[C@@H]1O[C@H](C)[C@H](NC(=O)/C=C\[C@H](C)OC(=O)N2CCN(C(=O)OC(C)(C)C)CC2)C[C@@H]1C | 0.018 | 7.01 | 2.87 | – |
| CC(=O)O[C@@H](C)/C=C\C(=O)N[C@@H]1C[C@H](C)[C@H](C/C=C(C)/C=C/[C@H]2O[C@H](CC(=O)OC(C)(C)C)C[C@@](O)(CCl)[C@@H]2O)O[C@@H]1C | 0.033 | 5.16 | 14.9 | – |
| COC(=O)C[C@@H]1C[C@@]2(CO2)[C@H](O)[C@@H](/C=C/C(C)=C/C[C@@H]2O[C@H](C)[C@H](NC(=O)/C=C\[C@H](C)NC(=O)C(C)C)C[C@@H]2C)O1 | 0.058 | 384 | 6.16 | – |
| CC(/C=C/[C@H]1O[C@H](C)C[C@@]2(CO2)[C@@H]1O)=C\C[C@@H]1O[C@H](C)[C@H](NC(=O)/C=C\[C@H](C)OC(=O)N2CCOCC2)C[C@@H]1C | 0.08 | 1.48 | 0.38 | – |
| CNC(=O)O[C@@H]1[C@@H](/C=C/C(C)=C/C[C@@H]2O[C@H](C)[C@H](NC(=O)/C=C\[C@H](C)OC(C)=O)C[C@@H]2C)O[C@H](OC)C[C@@]12CO2 | 10.1 | 76.1 | 76.7 | – |
| CO[C@@H]1C[C@@]2(CO2)[C@H](O)[C@@H](/C=C/C(C)=C/C[C@@H]2O[C@H](C)[C@H](NC(=O)/C=C\[C@H](C)OC(=O)N3CCOCC3)C[C@@H]2C)O1 | 0.006 | 13.8 | 0.49 | – |
| CC(=O)O[C@@H](C)/C=C\C(=O)N[C@@H]1C[C@H](C)[C@H](C/C=C(C)/C=C/[C@H]2O[C@H](CCN=[N+]=[N-])C[C@@]3(CO3)[C@@H]2O)O[C@@H]1C | 0.028 | 0.72 | 1.08 | – |
| CCOC(=O)/C=C/C[C@@H]1C[C@@]2(CO2)[C@H](O)[C@@H](/C=C/C(C)=C/C[C@@H]2O[C@H](C)[C@H](NC(=O)/C=C\[C@H](C)OC(=O)C(C)C)C[C@@H]2C)O1 | 0.09 | 2.73 | 2.96 | – |
| CO[C@@H]1C[C@@]2(CO2)[C@H](O)[C@@H](/C=C/C(C)=C/C[C@@H]2O[C@H](C)[C@H](NC(=O)/C=C\[C@H](C)OC(=O)N(C)CCO)C[C@@H]2C)O1 | 0.009 | 11 | 0.63 | – |
| CO[C@@H]1C[C@@]2(CO2)[C@H](O)[C@@H](/C=C/C(C)=C/C[C@@H]2O[C@H](C)[C@H](NC(=O)/C=C\[C@H](C)OC(=O)N(C)C)C[C@@H]2C)O1 | 0.09 | 2.01 | 1.08 | – |
| CC(=O)O[C@@H](C)/C=C\C(=O)N[C@@H]1C[C@H](C)[C@H](C/C=C(C)/C=C/[C@H]2O[C@H](CC(C)(C)O)C[C@@]3(CO3)[C@@H]2O)O[C@@H]1C | 0.08 | 2.96 | 0.64 | – |
| CC(/C=C/[C@H]1O[C@H](CC(=O)O)C[C@@](O)(CCl)[C@@H]1O)=C\C[C@@H]1O[C@H](C)[C@H](NC(=O)/C=C\[C@H](C)OC(=O)C(C)C)C[C@@H]1C [THAILANSTATIN C] | 64.7 | 298 | 137 | – |
| CO[C@@H]1C[C@@]2(CO2)[C@H](OC(C)=O)[C@@H](/C=C/C(C)=C/C[C@@H]2O[C@H](C)[C@H](NC(=O)/C=C\[C@H](C)OC(C)=O)C[C@@H]2C)O1 | 0.031 | 1.98 | 1.76 | – |
| CC(=O)O[C@@H](C)/C=C\C(=O)N[C@@H]1C[C@H](C)[C@H](C/C=C(C)/C=C/[C@H]2O[C@H](CC(=O)O)C[C@@]3(CO3)[C@@H]2O)O[C@@H]1C [THAILANSTATIN A] | 296 | > 400 | 419 | – |
| CC(/C=C/[C@H]1O[C@H](CC(=O)OC(C)(C)C)C[C@@](O)(CCl)[C@@H]1O)=C\C[C@@H]1O[C@H](C)[C@H](NC(=O)/C=C\[C@H](C)OC(=O)C(C)C)C[C@@H]1C | 0.13 | 10.3 | 264 | – |
| CC(=O)O[C@@H](C)/C=C\C(=O)N[C@@H]1C[C@H](C)[C@H](C/C=C(C)/C=C/[C@H]2O[C@H](CC(=O)OC(C)(C)C)C[C@@]3(CO3)[C@@H]2O)O[C@@H]1C | 0.005 | 0.48 | 1.37 | – |
| CC(=O)O[C@@H](C)/C=C\C(=O)N[C@@H]1C[C@H](C)[C@H](C/C=C(C)/C=C/[C@H]2O[C@H](CC(=O)O)C[C@@](O)(CCl)[C@@H]2O)O[C@@H]1C [THAILANSTATIN B] | 194 | > 1000 | 856 | – |

| Structure (SMILES) | IC50 [1] [nM] | IC50 [2] [nM] | IC50 [3] [nM] | IC50 [4] [nM] |
| --- | --- | --- | --- | --- |
| CC[C@H](C)[C@@H]([C@@H](CC(=O)N1CCC[C@H]1[C@H](OC)[C@@H](C)C(=O)N[C@H](C)[C@@H](O)c1ccccc1)OC)N(C)C(=O)[C@@H](NC(=O)[C@@H](NC)C(C)C)C(C)C (H-[NMeV]V[Dil][Dolaproine]-X1) | 0.068 | 88.2 | 0.096 | – |
| CO[C@@H]1C[C@@]2(CO2)[C@H](O)[C@@H](/C=C/C(C)=C/C[C@@H]2O[C@H](C)[C@H](NC(=O)/C=C\[C@H](C)NC(=O)C(C)C)C[C@@H]2C)O1 | 0.058 | 384 | 6.16 | – |
| CC(/C=C/[C@H]1O[C@H](C)C[C@@]2(CO2)[C@@H]1O)=C\C[C@@H]1O[C@H](C)[C@H](NC(=O)/C=C\[C@H](C)NC(=O)C(C)C)C[C@@H]1C | 0.015 | 4.91 | 0.23 | – |
| CC(=O)O[C@@H](C)/C=C\C(=O)N[C@@H]1C[C@H](C)[C@H](C/C=C(C)/C=C/[C@H]2O[C@H](CCC#N)C[C@@]3(CO3)[C@@H]2O)O[C@@H]1C | 0.099 | 2.6 | 0.82 | – |
| CO[C@@H]1C[C@@]2(CN2)[C@H](O)[C@@H](/C=C/C(C)=C/C[C@@H]2O[C@H](C)[C@H](NC(=O)/C=C\[C@H](C)OC(C)=O)C[C@@H]2C)O1 | 0.144 | 210 | 0.6 | – |
| CC(=O)O[C@H]1C(=O)[C@@]2(C)[C@H]([C@H](OC(=O)c3ccccc3)[C@]3(O)C[C@H](OC(=O)[C@H](O)[C@@H](NC(=O)c4ccccc4)c4ccccc4)C(C)=C1C3(C)C)[C@]1(OC(C)=O)CO[C@@H]1C[C@@H]2O [PACLITAXEL] | 1.76 | > 400 | 2.47 | – |
| CC(/C=C/[C@H]1O[C@H](C)C[C@@]2(CO2)[C@@H]1O)=C\C[C@@H]1O[C@H](C)[C@H](NC(=O)/C=C\[C@H](C)OC(=O)N2CCCCC2)C[C@@H]1C | 0.07 | 0.57 | 0.5 | – |
| CC(=O)O[C@@H](C)/C=C\C(=O)N[C@@H]1C[C@H](C)[C@H](C/C=C(C)/C=C/[C@H]2O[C@](C)(O)C[C@]3(CO3)[C@H]2O)O[C@@H]1C | – | – | – | 35000 |
| CC(=O)O[C@@H](C)/C=C\C(=O)N[C@H]1C[C@H](C)[C@H](C/C=C(C)/C=C/[C@H]2O[C@](C)(O)C[C@]3(CO3)[C@H]2O)O[C@@H]1C | – | – | – | 20000 |
| CC(=O)O[C@@H](C)/C=C\C(=O)N[C@H]1C[C@H](C)[C@H](C/C=C(C)/C=C/[C@H]2O[C@](C)(O)C[C@@]3(CO3)[C@@H]2O)O[C@@H]1C | – | – | – | 1000 |
| CO[C@]1(C)C[C@@]2(CO2)[C@H](O)[C@@H](/C=C/C(C)=C/C[C@@H]2O[C@H](C)[C@@H](NC(=O)/C=C\[C@H](C)OC(C)=O)C[C@@H]2C)O1 | – | – | – | 1000 |
| CC(/C=C/[C@H]1O[C@H](CC(=O)OC2CC2)C[C@@]2(CO2)[C@@H]1O)=C\C[C@@H]1O[C@H](C)[C@H](NC(=O)/C=C\[C@H](C)OC(=O)C(C)C)C[C@@H]1C | 0.218 | 16.1 | 2.15 | – |
| CC(=O)O[C@@H](C)/C=C\C(=O)N[C@@H]1C[C@H](C)[C@H](C/C=C(C)/C=C/[C@H]2O[C@H](CCNC(=O)OC(C)(C)C)C[C@@]3(CO3)[C@@H]2O)O[C@@H]1C | 0.004 | 1.8 | 0.13 | – |
| CC(=O)O[C@@H](C)/C=C\C(=O)N[C@@H]1C[C@H](C)[C@H](C/C=C(C)/C=C/[C@H]2O[C@H](C)C[C@@]3(CO3)[C@@H]2O)O[C@@H]1C | 0.1 | 0.56 | 0.55 | – |
| C=C1C[C@@H](CC(=O)O)O[C@H](/C=C/C(C)=C/C[C@@H]2O[C@H](C)[C@H](NC(=O)/C=C\[C@H](C)OC(C)=O)C[C@@H]2C)[C@H]1O | > 1000 | > 1000 | > 1000 | – |
| CO[C@@H]1C[C@@]2(CO2)[C@H](O)[C@@H](/C=C/C(C)=C/C[C@@H]2O[C@H](C)[C@H](NC(=O)/C=C\[C@H](C)OC(=O)N3CCCCC3)C[C@@H]2C)O1 | 0.11 | 3.35 | 3.71 | – |
| CC(/C=C/[C@H]1O[C@H](CC(=O)OC(C)(C)C)C[C@@]2(CO2)[C@@H]1O)=C\C[C@@H]1O[C@H](C)[C@H](NC(=O)/C=C\[C@H](C)OC(=O)C(C)C)C[C@@H]1C | 0.099 | 4.83 | 11.3 | – |
| CC(/C=C/[C@H]1O[C@H](C)C[C@@]2(CO2)[C@@H]1O)=C\C[C@@H]1O[C@H](C)[C@H](NC(=O)/C=C\[C@H](C)NC(=O)N(C)C)C[C@@H]1C | 0.28 | > 16 | 1.97 | – |
| CC(/C=C/[C@H]1O[C@H](CC(=O)NCCC(=O)O)C[C@@]2(CO2)[C@@H]1O)=C\C[C@@H]1O[C@H](C)[C@H](NC(=O)/C=C\[C@H](C)OC(=O)C(C)C)C[C@@H]1C | 1.44 | 74 | 4.58 | – |
| CC(/C=C/[C@H]1O[C@H](C)C[C@@]2(CO2)[C@@H]1O)=C\C[C@@H]1O[C@H](C)[C@H](NC(=O)/C=C\[C@H](C)NC(=O)N2CCCCC2)C[C@@H]1C | 0.041 | 64 | 3.19 | – |
